Experiments:
p38α [1] = molecular target: p38α (Homo sapiens, UniProt Q16539); experiment: HTRF kinase assay (CisBio), activity-based, p38α; assay type: biochemical; conditions: compounds HTS 1-15
p38α [2] = molecular target: T1, p38α (Homo sapiens, UniProt Q16539, A172C/C119S/C162S/F327L); experiment: HTS screen with acrylodan-labeled p38α, 384-well secondary screen for Kd; assay type: binding; conditions: compounds HTS 1-15
T1 construct: His-tag with PreScission site (N, cleaved yes); GST (N); made in house; host or cells: E. coli BL21(DE3)
Experimental: The complete screen was carried out by first using the labeled kinase binding assay in a 384-well HTS format to initially screen for possible ligands for the DFG-out conformation, or DFG-out binders. This was accomplished by first performing a primary screen at a single concentration of each ligand, followed by a secondary screen over a range of concentrations to directly determine the Kd of each potential hit.
The methods for the setup and execution of the screen are provided below. […] Large volumes of the same buffer were also use to prepare solutions for pipetting background (no labeled kinase added) and screening plates (+100 nM acrylodan-labeled p38α).
An industrial pipetting robot was used to first dispense […] of pre-diluted compounds into a set of two 384-well small volume assay plates. Subsequently, 15 μl of buffer was added to the background plate while the same volume of buffer containing the labeled kinase was added to the screening plate to detect DFG-out binders. […] A Tecan Safire^2 instrument was used to measure the fluorescence read-out in the 384-well plate format.
A secondary screen was carried out also in 384-well plates using a range of concentrations (100 nM to 50 μM) of each ligand in order to generate binding curves or identify false hits which were picked up due to high degrees of fluorescence interference. […] As before, large volumes of the same buffer were also used to prepare solutions for pipetting background (no labeled kinase added) and screening plates (+100 nM acrylodan-labeled p38α). The pipetting robot was used to first dispense 3.5 μl of pre-diluted compounds into a set of two 384-well small volume assay plates. Each plate contained no more than 7 different compounds identified in the primary screen, each screened at 10 concentrations (100 nM to 50 μM) and 4 wells per concentration. Subsequently, 3.5 μl of buffer was added to the background plate while the same volume of buffer containing the labeled kinase was added to the screening plate. Plates were sealed, incubated and measured as described for the primary screen. […] An exemplary sample plate layout is shown below.
Where indicated, binding curves were also plotted as % p38α bound by the ligand. The % p38α bound is calculated as follows: […]

p38α [3] = molecular target: T1, p38α; experiment: acrylodan-labeled p38α (ac-p38α) fluorescence binding assay, endpoint Kd measurements; conditions: for Kd: pyrazolourea derivatives of BIRB-796, 50 nM ac-p38α, cuvettes
p38α [4] = molecular target: T1, p38α; experiment: ac-p38α real-time fluorescence measurements of binding and dissociation kinetics; conditions: for real-time fluorescence response upon addition to ac-p38α: cuvette method, acrylodan emission at 468 nm; for t1/2 of dissociation: t1/2 = ln 2/kobs
Experimental: The conditions for such measurements are currently being further optimized (buffer, temperature, protein and inhibitor concentrations, length of incubation).
The addition of excess kinase causes the inhibitor to redistribute, resulting in a net dissociation of inhibitor from ac-p38α and a fluorescence increase which was fit to a first-order function.
After measuring koff for allosteric compounds, Applicants established conditions for measuring the kon of the same compounds. This was accomplished using the cuvette method by adding various concentrations of inhibitor to ac-p38α and fitting the fluorescence decay to a first-order function.

PC3 cells [5] = experiment: immunoblot analysis of pSrc and pFAK in PC3 cells; assay type: cell-based; conditions: 5 hr treatment; 11c 1, 2, 5, 10 μM, dasatinib 100 nM
Experimental: (§1) PC3 and DU145 were generously provided by Dr. Roman Thomas (Max Planck Institute for Neurological Research, Cologne). The cells were cultured in Dulbecco's modified Eagle's medium (DMEM) supplemented with 10% heat-inactivated fetal bovine serum (FBS) and 100 units/mL penicillin/streptomycin. Cells were cultured at 37° C. in humidified air containing 5% CO2. After inhibitor treatment (5 h), the cells were washed twice in cold phosphate-buffered saline (PBS) and then lysed for 10 min on ice in lysis buffer (20 mM Tris-HCl pH 7.5, 150 mM NaCl, 1% Triton, 1 mM Na2EDTA, 1 mM EGTA, 2.5 mM sodium pyrophosphate, 1 mM β-glycerophosphate, 1 mM Na3VO4, 1 μg/mL leupeptin, 1 mM PMSF, and common protease inhibitors). Subsequently, cells were centrifuged for 20 min at 20000×g and 4° C. The supernatant was subjected to immunoblot analysis.
(§2) Protein concentration was measured using a spectrophotometer (ND-1000, peQLab). Equal amounts of protein were separated by SDS-PAGE and transferred to nitrocellulose membranes. […] After washing, blots were incubated with secondary antibodies and then detected on film using the enhanced chemiluminescence (ECL) detection system.
(§3) Applicants monitored the phosphorylation state of Y416—an autophosphorylation site in the activation loop of cSrc—and Y576/Y577—two residues in the activation loop of focal adhesion kinase (FAK). […]

DU145 cells [6] = experiment: immunoblot analysis of pSrc and pFAK in DU145 cells; assay type: cell-based; conditions: 5 hr treatment; 11c 1, 2, 5, 10 μM, dasatinib 100 nM
Experimental: as §1, §2, §3

PC3 cells [7] = experiment: cell-to-cell contacts by light microscopy, PC3 cells; assay type: cell-based; conditions: 24 hours treatment; 11c 10 μM, dasatinib 100 nM
Text: (§4) Reduction of cell-to-cell-contacts and cell proliferation in PC3 and DU145 cells by (11c, RL46). […] Total expression of FAK was unchanged while cSrc expression was increased in both cell lines. (b). Cell-to-cell contacts visualized by light microscopy at 10× magnification.

DU145 cells [8] = experiment: cell-to-cell contacts by light microscopy, DU145 cells; assay type: cell-based; conditions: 24 hours treatment; 11c 10 μM, dasatinib 100 nM
Text: as §4

cSrc = molecular target: T2, cSrc (Gallus gallus, UniProt P00523, C277S/C483S/C496S/L407C); experiment: acrylodan-labeled cSrc fluorescence binding assay; set-up: species or system chicken; conditions: any concentration
T2 construct: The chicken cSrc gene (residues 251-533); His tag with PreScission site (N, cleaved yes); made in house; host or cells: E. coli BL21(DE3) Codon+RIL
Experimental: Acrylodan-labeled cSrc (50 nM) was placed into cuvettes with a rapidly stirring mini stir bar while monitoring acrylodan fluorescence (left panel).
Crystal structures of chicken cSrc (kinase domain) in the DFG-in and DFG-out conformations were closely examined to identify a suitable fluorophore attachment site near the N-terminal end of the activation loop of cSrc which would report the binding of allosteric inhibitors by sensing changes in the activation loop conformation. Care was taken to not choose residues that were known phosphorylation sites or other sites that appeared to be critical to maintaining protein stability. A Cys was introduced into the chosen position (L407C) by site-directed mutagenesis while non-specific labeling was minimized by conservatively mutating other solvent exposed Cys into Ser (C277S, C483S, C496S).
Pure cSrc kinase containing the labeling site Cys mutation (L407C) and acrylodan (dissolved in DMF) were combined in buffer (pH 7.0) at a ratio of 1:1.5 protein:fluorophore and allowed to react in the dark overnight at 4° C. […] The labeled cSrc was then aliquoted, kept dark and frozen at −20° C.
Screening initiatives were carried out for acrylodan-labeled cSrc in 384-well plates. Stocks of candidate compounds were prepared in DMSO at 20× the final desired concentration. […]

Sequence of p38α (Homo sapiens, UniProt Q16539) (Q16539 whole entry): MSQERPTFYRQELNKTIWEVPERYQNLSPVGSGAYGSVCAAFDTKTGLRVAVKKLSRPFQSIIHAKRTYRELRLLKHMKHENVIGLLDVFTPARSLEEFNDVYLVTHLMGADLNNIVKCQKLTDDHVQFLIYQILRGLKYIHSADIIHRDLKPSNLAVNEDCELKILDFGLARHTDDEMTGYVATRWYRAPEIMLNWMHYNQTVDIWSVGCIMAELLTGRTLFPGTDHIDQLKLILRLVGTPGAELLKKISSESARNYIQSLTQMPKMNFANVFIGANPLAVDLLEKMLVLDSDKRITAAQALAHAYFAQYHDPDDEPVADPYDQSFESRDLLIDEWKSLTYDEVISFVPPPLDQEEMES
T1 sequence (Q16539 whole entry C119S/C162S/A172C/F327L): as the sequence (Q16539 whole entry) above, with C119S, C162S, A172C, F327L counted along it

Row | SMILES | IC50 (p38α [1]) | Kd (p38α [2]) | other results
1 | CC(=O)Nc1ccc(C(=O)Nc2ccc(-c3nc4cc(NC(=O)c5ccc(NC(C)=O)cc5)ccc4[nH]3)cc2)cc1 [HTS 7] | 15.3 ± 2.8 µM | 6.18 ± 2.31 µM | 
2 | Fc1cccc(COc2ccc(Nc3ncnc4ccccc34)cc2Cl)c1 [HTS 4] | > 50 µM | 10.3 ± 2.2 µM | 
3 | Cc1ccc(-n2nc(C(C)(C)C)cc2NC(=O)Nc2ccc(Cl)cc2)cc1 [12c, RL17] |  |  | Kd (p38α [3]; read-out: Kd): 0.034 µM
4 | O=C(c1ccc(CSc2nc3ccncc3[nH]2)cc1)N1CCC(Cc2ccccc2)CC1 [HTS 11] | 2.6 ± 0.92 µM | 2.3 ± 0.57 µM | 
5 | Cc1ccc(-n2nc(C(C)(C)C)cc2NC(=O)Nc2ccc(Cl)cc2)cc1Cl [12b, RL18] |  |  | Kd (p38α [3]; read-out: Kd): 0.018 µM
6 | Cc1nc(Nc2ncc(C(=O)Nc3c(C)cccc3Cl)s2)cc(N2CCN(CCO)CC2)n1 [Dasatinib] |  |  | real-time fluorescence response upon addition to ac-p38α (p38α [4]): instantaneous fluorescence response; pSrc and pFAK levels (PC3 cells [5]): markedly reduced; pSrc and pFAK levels (DU145 cells [6]): markedly reduced; cell-to-cell contacts and intact cells (PC3 cells [7]): markedly reduced cell-to-cell-contacts and fewer intact cells; cell-to-cell contacts and intact cells (DU145 cells [8]): markedly reduced cell-to-cell-contacts and fewer intact cells
7 | Cc1ccccc1-n1nc(C(C)(C)C)cc1NC(=O)Nc1ccc(Cl)cc1 [12D, RL15] |  |  | Kd (p38α [3]; read-out: Kd): 0.347 µM
8 | O=C(CN1C(=O)c2cccc3cccc1c23)Nc1cccc(C(F)(F)F)c1 [HTS 5] | > 50 µM | 3.1 ± 0.91 µM | 
9 | NS(=O)(=O)c1ccc(CCNc2nc3c(-c4cccc(C(F)(F)F)c4)nnn3c3ccccc23)cc1 [HTS 6] | > 50 µM | 0.301 ± 0.059 µM | 
10 | COC(=O)C1=CO[C@@H](C)[C@H]2CN3CCc4c([nH]c5cc(OC)ccc45)[C@H]3C[C@@H]12 [HTS 3] | 18.3 ± 7.2 µM | 2.2 ± 0.11 µM | 
11 | Cc1ccc(NCc2cc3cc4c(cc3n(CC(=O)Nc3ccccc3F)c2=O)OCCO4)cc1 [HTS 10] | 31.3 ± 17.2 µM | 29.4 ± 4 µM | 
12 | O=C(CSc1cn(CCNC(=O)c2cccc(C(F)(F)F)c2)c2ccccc12)Nc1ccc2c(c1)OCCO2 [HTS 13] | 1.1 ± 0.4 µM |  | 
13 | CCOC(=O)c1c(C)c(C(=O)N2CCN(Cc3ccccc3)CC2)c(C)n1CC [HTS 8] | 2.6 ± 0.9 µM |  | 
14 | CNC(=O)c1cc(Oc2ccc(NC(=O)Nc3ccc(Cl)c(C(F)(F)F)c3)cc2)ccn1 [sorafenib, reference compound] |  |  | t1/2 of dissociation (p38α [4]): 2.4 min
15 | Cc1ccc(-n2nc(C(C)(C)C)cc2NC(=O)Nc2cccc3ccccc23)cc1 [14a, RL36] |  |  | Kd (p38α [3]; read-out: Kd): 0.011 µM
16 | Clc1cccc(-c2nc3cnccn3c2NC2CCCCC2)c1 [HTS 14] |  | 100 ± 5.8 µM | 
17 | Cc1ccc(C(=O)NCCC23CC4CC(CC(C4)C2)C3)cc1NC1=NC2CS(=O)(=O)CC2S1 (stereo not drawn) [HTS 12] | 11 ± 1.5 µM | 1.3 ± 0.08 µM | t1/2 of binding (p38α [4]; HTS hit, real-time kinetic measurement): ~0.633 min
18 | CCc1ccc(NCc2cc3cc(OC)c(OC)cc3n(CC(=O)Nc3cc(C)ccc3C)c2=O)cc1 [HTS 9] | 25.6 ± 4.7 µM | 24.9 ± 4.9 µM | 
19 | Cc1ccc(-n2nc(C(C)(C)C)cc2NC(=O)Nc2ccc(OCCN3CCOCC3)cc2)cc1 [15, RL39] |  |  | t1/2 of dissociation (p38α [4]): 11.2 min
20 | Cc1cccc(-n2nc(C(C)(C)C)cc2NC(=O)Nc2ccc(Cl)cc2)c1 [12a, RL29] |  |  | t1/2 of dissociation (p38α [4]): 52.3 min
21 | CC(C)(C)c1cc(NC(=O)Nc2ccc(Cl)cc2)n(-c2ccc(C(F)(F)F)cc2Cl)n1 [7, RL19] |  |  | fluorescence response of ac-p38α (p38α [3]; endpoint measurements): complete lack of fluorescence response; Kd (p38α [3]): No Binding; fluorescence ratio response (cSrc): did not respond
22 | Brc1cccc(-c2nc3cnccn3c2NC2CCCC2)c1 [HTS 15] |  | 27.5 ± 5.3 µM | 
23 | Fc1ccc(-c2nc3n(c2-c2ccncc2)CCS3)cc1 [SKF86002, reference compound] |  |  | real-time fluorescence response upon addition to ac-p38α (p38α [4]): instantaneous response

Reference: patent US20110212475A1, “Fluorescently Or Spin-Labeled Kinases For Rapid Screening And Identification Of Novel Kinase Inhibitor Scaffolds” (priority 2008, published 2011)
